According to paper PMC10295463, “Computational Characterization of the Binding Properties of the HIV1-Neutralizing Antibody PG16 and Design of PG16-Derived CDRH3 Peptides” (Biology, 2023):
Bridge positions count the residues as written; N and C are the ends. Square brackets hold non-standard residues; d marks the D form. Peptide text beside a SMILES is read from it. * marks the point of attachment. Biotin = O=C1N[C@H]2[C@H](CS[C@H]2CCCCC(=O)*)N1; pY = N[C@@H](Cc1ccc(OP(=O)(O)O)cc1)C(=O)O; AEEA = NCCOCCOCC(=O)O

Biological target: T1, gp120 HxBc2 (Human immunodeficiency virus type 1 group M subtype B, UniProt P04578)
T1 construct: incubated for 3 h with gp120 HxBc2 (ImmuneTech); purchased ImmuneTech
Test: Peptide binding assay (ELISA): gp120 binding to immobilized biotinylated peptide
Design: species or system HIV-1
Details: same ELISA, gp120 up to 16.6 nM
Protocol: High-binding Corning Costar microtiter half-area plates were coated with Neutravidin (Thermo Scientific, Dreieich, Germany, 4.0 μ g /mL) in 0.1 M carbonate buffer pH 9.6, overnight at 4 ^∘C . After the blocking of unspecific binding with 1% BSA in 0.1 M phosphate buffer pH 7.2, for 1 h , the neutravidin-coated plate was incubated with 2 μ m biotinylated peptide for 2 h . Plates were then incubated for 3 h with gp120 HxBc2 (ImmuneTech, New York, NY, USA) at three-fold serial dilutions, starting at 16.6 nM. Bound gp120 was detected with sheep anti-gp120 (Aalto Bio Reagents, Dublin, Ireland) 0.1 μ g /mL) for 1 h , followed by rabbit anti-sheep-HRP conjugate (Jackson Immuno Research, Ely, UK, 0.1 μ g /mL) for 1 h . All peptides and proteins were diluted in 0.1 M phosphate buffer pH 7.2, containing 0.01% Tween. Plates were developed with OPD ( 1 m g /mL) in the presence of 0.03% H2O2 for approximately 10 min in the dark. After the reaction was stopped with 2 M H2SO4, absorbance was read at 492 n m . The absorbance of the blanks (samples without peptide) was subtracted. All data points present means of duplicates. Curves were fitted and EC50 values calculated using the program Origin 2021 (OriginLab Corporation, Northampton, MA, USA).

## CC[C@H](C)[C@@H]1NC(=O)[C@@H](NC(=O)CNC(=O)COCCOCCNC(=O)CCCC[C@@H]2SC[C@@H]3NC(=O)N[C@@H]32)CSSC[C@@H](C(=O)N[C@@H](Cc2ccc(O)cc2)C(=O)N[C@@H](Cc2ccc(OP(=O)(O)O)cc2)C(=O)N[C@@H](CC(=O)O)C(=O)N[C@@H](Cc2ccccc2)C(=O)N[C@@H](CC(N)=O)C(=O)N[C@@H](CC(=O)O)C(=O)NCC(N)=O)NC(=O)[C@H](C(C)C)NC(=O)[C@H](CC(=O)O)NC(=O)[C@H](CC(=O)O)NC(=O)[C@H](Cc2c[nH]cn2)NC(=O)[C@H](Cc2c[nH]c3ccccc23)NC1=O [LW40.2] ({Biotin-AEEA}-GCIWHDDVCY[pY]DFNDG-NH2; disulfide 2-9)
  binding of gp120 to the peptide (in words): no detectable binding at all
